Experiments:
[1] = test system: Bacillus subtillis ATCC 6051; assay: Minimum inhibitory concentration in vitro, Bacillus subtillis; assay type: cell-based; design: unit not given here; conditions: free acids tested after removal of ester protective group
Experimental: (§1) General Procedure for Removing Protective Groups
(§2) The ester (100-200 mg) is dissolved in approx. 10 ml of 90% HOAc and the solution cooled to 0° before 1-1.5 g of zinc dust is added. The mixture is stirred at 0° for 3-5 hr. Removal of the zinc by filtration through celite into a flask containing 100 ml of ice-H2 O and washing the zinc with methylene chloride (50 ml) yielded a two-phase system. Separation of the organic layer, extraction of the aqueous layer with several methylene chloride-zinc washings, drying (MgSO4) and removal of the solvent under reduced pressure (no heat) afforded the free acid.
(§3) For purification (if required) the acid was dissolved in CH2 Cl2 and extracted with aqueous NaHCO3. The aqueous layer, after being extracted several times with CH2 Cl2, was cooled with ice and acidified with dilute HCl. Extraction with CH2 Cl2, drying (MgSO4) and removal of the solvent under reduced pressure (no heat) gave the pure acid.
(§4) A flask, charged with the ester, is submerged in an ice bath 5-10 min. before cold trifluoroacetic acid is added. The solution is stirred at 0° for 30-45 min. and then the solvent removed by distillation under reduced pressure (2-3 mm) with the reaction flask still submerged in the ice bath. The residue is freeze dried from benzene.
If purification is required, it is done in the same manner as described for removal of the trichloroethyl group (see above).
The benzhydryl group is removed in the same manner as described for the removal of the t-butyl group, above. After freeze drying the residue was purified in the following manner. The acid was dissolved in methylene chloride and extracted with aqueous NaHCO3. The aqueous layer, after being extracted several times with methylene chloride, was partitioned with methylene chloride, cooled with ice, and acidified with dilute HCl. Extraction with methylene chloride, drying (MgSO4), and removal of the solvent under reduced pressure (no heat) gave the pure acid.
In order to remove the protective benzyhydryl group from benzyhydryl-6β-(triophene-2-acetylthio)-6α-methoxypenicillanate, the following procedure was found necessary. The ester (70-80 mg) is dissolved in 10 ml of CH2 Cl2 and the solution cooled to -77° (CO2 -acetone) before the addition of 0.5 ml of trifluoroacetic acid. The solution was warmed to approximately -10° (NaCl-H2 O-ice) and stirred at that temperature for 5-6 hr. The solution was cooled to -77° and 75-100 ml of benzene added. After the contents of the flask solidified the acid was isolated by freeze drying and bioassayed without purification.
The protective groups of the penicillin and cephalosporin esters were removed as described above and the resulting free acids were tested in vitro for bioactivity.

Sarcina lutea = assay: Minimum inhibitory concentration in vitro, Sarcina lutea; assay type: cell-based; conditions: free acids tested after removal of ester protective group
Experimental: as §1, §2, §3, §4
(§5) If purification is required, it is done in the same manner as described for removal of the trichloroethyl group (see above). […]

[2] = test system: Staphylococcus aerus (Roche); assay: Minimum inhibitory concentration in vitro, Staphylococcus aerus (Roche); assay type: cell-based; design: unit not given here; conditions: free acids tested after removal of ester protective group
Experimental: as §1, §2, §3, §4, §5

[3] = literature; cited from earlier work
[4] = test system: certain Gram-negative organisms; conditions: background; cited from earlier work
[5] = test system: certain resistant staphylococci; conditions: background; cited from earlier work

COC1(SC(=O)Cc2ccccc2)C(=O)N2C(C(=O)OC(C)(C)C)=C(COC(C)=O)CSC21 (stereo not drawn) [tert-Butyl 7β-(phenylacetylthio)-7α-methoxycephalosporanate]
Minimum Inhibitory Concentration [1]: < 6.25 | Minimum Inhibitory Concentration (Sarcina lutea): 100 mg/mL

COC(=O)SC1(OC)C(=O)N2C(C(=O)OC(C)(C)C)=C(COC(C)=O)CSC21 (stereo not drawn) [t-Butyl 7β-(methoxycarbothio)-7α-methoxycephalosporanate]
Minimum Inhibitory Concentration [1]: 50 | Minimum Inhibitory Concentration (Sarcina lutea): 25 mg/mL | Minimum Inhibitory Concentration [2]: 50

CC1(C)S[C@@H]2[C@@H](OC(=O)COc3ccccc3)C(=O)N2[C@H]1C(=O)O [6α-phenoxyacetoxypenicillanic acid]
biological activity [3]: exhibits no biological activity

CC1(C)S[C@@H]2[C@H](NC(=O)C(C(=O)O)c3ccccc3)C(=O)N2[C@H]1C(=O)O (some centres unmarked) [carbenicillin]
broadened spectra of activity, Gram-negative organisms [4]: broadened the spectra to activity to include use against certain Gram-negative organisms

COC1(SC(=O)OCC(Cl)(Cl)Cl)C(=O)N2C(C(=O)OC(c3ccccc3)c3ccccc3)C(C)(C)SC21 (stereo not drawn) [Benzhydryl 6β-(β,β,β-trichloroethoxycarbothio)6α-methoxypenicillanate]
Minimum Inhibitory Concentration [1]: 100

CC1(C)S[C@@H]2[C@H](NC(=O)[C@H](N)c3ccccc3)C(=O)N2[C@H]1C(=O)O [ampicillin]
broadened spectra of activity, Gram-negative organisms [4]: broadened the spectra to activity to include use against certain Gram-negative organisms

COC1(SC(=O)Cc2cccs2)C(=O)N2C(C(=O)OC(C)(C)C)=C(COC(C)=O)CSC21 (stereo not drawn) [tert-Butyl 7β-(thiophene-2-acetylthio)-7α-methoxycephalosporanate]
Minimum Inhibitory Concentration [1]: 50

COc1cccc(OC)c1C(=O)N[C@@H]1C(=O)N2[C@@H]1SC(C)(C)[C@@H]2C(=O)O [methicillin]
activity against certain resistant staphylococci [5]: good activity
